Publication PMC11013477, “Lycocasine A, a Lycopodium Alkaloid from Lycopodiastrum casuarinoides and Its Acid-Sensing Ion Channel 1a Inhibitory Activity” (Molecules, 2024)
Like-named read-outs stand apart in the source and are kept apart here.

Tests used:
ASIC1a [1] = target: T1, ASIC1a (Homo sapiens, UniProt P78348); settings: read-out: IC50 ASIC1a inhibition; cited from earlier work
T1 construct: expressed in transfected cells; host or cells: HEK293T
T1 sequence (P78348 1-528): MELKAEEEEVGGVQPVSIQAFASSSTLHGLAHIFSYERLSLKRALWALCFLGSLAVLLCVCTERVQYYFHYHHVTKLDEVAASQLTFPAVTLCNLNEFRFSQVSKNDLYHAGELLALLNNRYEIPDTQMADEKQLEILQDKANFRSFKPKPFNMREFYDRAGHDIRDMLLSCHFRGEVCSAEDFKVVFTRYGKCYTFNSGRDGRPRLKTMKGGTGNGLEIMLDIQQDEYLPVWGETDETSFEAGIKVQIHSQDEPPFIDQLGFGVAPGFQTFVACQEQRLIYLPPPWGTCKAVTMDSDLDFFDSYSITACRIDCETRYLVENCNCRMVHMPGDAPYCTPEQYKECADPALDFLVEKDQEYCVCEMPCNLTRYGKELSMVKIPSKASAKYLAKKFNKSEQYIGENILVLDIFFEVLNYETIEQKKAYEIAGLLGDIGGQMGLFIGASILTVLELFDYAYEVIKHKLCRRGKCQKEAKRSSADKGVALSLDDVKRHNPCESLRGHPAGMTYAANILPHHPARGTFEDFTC

ASIC1a [2] = target: T1, ASIC1a; assay: Whole-cell voltage-clamp recording of ASIC1a currents in transfected HEK293T cells; assay type: cell-based; settings: for inhibition at 50 µM: HEK-293T
Experimental: Cells were plated at a low density in 12-well plates 24 h prior to transfection. For transfection, Lipofectamine 3000 (Invitrogen, Thermo Fisher Scientific, Inc., Waltham, MA, USA) was utilized to introduce 300 ng of ASIC1a cDNA into adherent cells, which were then analyzed for 24–48 h post-transfection. […] Borosilicate glass micropipettes, fashioned to achieve a resistance of 2–6 MΩ, were filled with an intracellular recording solution comprising 140 mM KCl, 2 mM MgCl2, 5 mM EGTA, 5 mM NaCl, and 10 mM HEPES (adjusted to pH 7.4 with KOH). […] Current signals were amplified using a SUTTER IPA-2 amplifier, with data acquisition and analysis performed using SutterPatch 9.0 software. Data processing was carried out using GraphPad Prism version 8.0.

[3] = 50 μM, HEK293T cells transfected with ASIC1a, currents triggered by pH 6.0, holding potential −60 mV, read-out: inhibition rate of ASIC1a currents

Row | SMILES | IC50 (ASIC1a [1]) [µM] | inhibition at 50 µM (ASIC1a [2]; [3]) [%] | other results
1 | COc1cc2c(cc1O)[C@H](Cc1ccc(Oc3cc(C[C@@H]4NCCc5cc(OC)c(O)cc54)ccc3O)cc1)NCC2 [Lindoldhamine] | 9 | – | –
2 | COC1=C[C@@H]2[C@@H]3Cc4ccc(OC)c(O)c4[C@]2(CCN3C)CC1=O [Sinomenine] | ~1 | – | –
3 | N=C(N)NC(=O)c1nc(Cl)c(N)nc1N [Amiloride] | – | > 50 | –
4 | C=CC1C2C=C(C)CC1(N(C)C)C1=C(C(=O)OC)C(=O)NC1(O)C2 (centres unmarked) [Compound 1, lycocasine A] | – | – | IC50 (ASIC1a [2]): 48.7 ± 0.92 µM; inhibition at 50 µM (ASIC1a [2]; pH 6, read-out: inhibition rate of ASIC1a currents): > 50%; melting point: 187 to 189 °C
5 | O=c1c(-c2ccc(O)cc2)coc2c([C@@H]3O[C@H](CO)[C@@H](O)[C@H](O)[C@H]3O)c(O)ccc12 [Puerarin] | 9.31 | – | –
6 | CC1=C[C@H]2Cc3[nH]c(=O)ccc3[C@]3(C1)NCCC[C@H]23 [Compound 7, huperzine B] | – | < 30 | –
